Biological target: T1, renin (Homo sapiens, UniProt P00797)
T1 construct: This test measures the formation of angiotensin I in human plasma; from tissue; host or cells: human plasma
T1 sequence (P00797 67-406): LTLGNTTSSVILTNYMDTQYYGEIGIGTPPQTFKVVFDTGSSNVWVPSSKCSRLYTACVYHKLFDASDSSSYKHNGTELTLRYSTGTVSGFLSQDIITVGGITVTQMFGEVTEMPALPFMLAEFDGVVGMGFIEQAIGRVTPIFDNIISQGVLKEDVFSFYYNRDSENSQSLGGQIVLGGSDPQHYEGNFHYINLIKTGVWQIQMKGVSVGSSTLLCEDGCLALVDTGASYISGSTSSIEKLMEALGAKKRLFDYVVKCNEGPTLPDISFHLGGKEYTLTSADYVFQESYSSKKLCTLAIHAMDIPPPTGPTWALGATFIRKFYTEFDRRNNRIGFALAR
Assay: in vitro test of Nussberger et al.: formation of angiotensin I in human plasma, radio-immunoassay
Type: biochemical
Conditions: concentration which reduces the formation of angiotensin I in human plasma by 50%
Method: The effect of renin inhibitors is detected inter alia experimentally by means of in vitro tests where the reduction in the formation of angiotensin I is measured in various systems (human plasma, purified human renin together with synthetic or natural renin substrate). The following in vitro test of Nussberger et al. (1987) J. Cardiovascular Pharmacol., Vol. 9, pp. 39-44, is used inter alia. This test measures the formation of angiotensin I in human plasma. The amount of angiotensin I formed is determined in a subsequent radio-immunoassay. The effect of inhibitors on the formation of angiotensin I is tested in this system by adding various concentrations of these substances. The IC50 is defined as the concentration of the particular inhibitor which reduces the formation of angiotensin I by 50%.

IC50: 2.6 nM
Compound: COCCCOc1cc(C[C@@H](C[C@H](N)[C@@H](O)C[C@H](C(=O)NC[C@H]2CCCO2)C(C)C)C(C)C)ccc1OC [Example 1, 5-Amino-4-hydroxy-2-isopropyl-7-[4-methoxy-3-(3-methoxypropoxy)benzyl]-8-methyl-N-(tetrahydrofuran-2(R)-ylmethyl)nonamide]
